Drawing on PubChem BioAssay (NCI), this text covers GI50 and TGI for 20 compounds.

Assay in all cases: NCI tumour cell line growth inhibition, 48 h
In assay [1] the test system is A549 NSCLC.
The test system of assay [2] is LOX IMVI melanoma.
The test system of assay [3] is HL-60(TB) leukemia.
Assay [4] relates to HOP-92 NSCLC.
Assay [5] has as its system MOLT-4 leukemia.
Assay [6] has as its system SNB-19 CNS.
The subject of assay [7] is EKVX NSCLC.
Assay [8] relates to NCI-H522 lung.
Assay [9] relates to SK-OV-3 ovarian.
In assay [10] the test system is MALME-3M melanoma.

Structures are written as SMILES.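 Cultured in 96-well plates, cells were exposed to test compound for 48 hours across five concentrations. The concentration for 50% growth inhibition is given as GI50. At the TGI there is no net growth.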

Take `Cc1cc2c(cc1Cl)S/C(=C/C(=O)O)C(Nc1cccc3nsnc13)=NS2(=O)=O`: the GI50 in assay [1] is > 51 µM; in assay [2], 53.4 µM; in assay [3], 7.63 µM; in [4], 28.2 µM; in [5] it was 17.9 µM; in [6], > 52 µM. The GI50 in assay [7] was > 10.5 µM; in assay [8], 30.7 µM; in [9] it was > 49.5 µM; in assay [10], > 53.4 µM. The TGI in assay [1] is > 81.3 µM; in [2], > 70.1 µM; in assay [3] it was > 32.5 µM; in assay [4] it was 62 µM; in assay [5] it was > 59.4 µM; in assay [6], > 66.8 µM. Also, the TGI in [7] was > 19.9 µM; in assay [8], > 77.4 µM; in assay [9] it was > 62.5 µM; in [10], > 65.8 µM.

Turning to `Cc1cc(C)n(C2=NS(=O)(=O)c3ccccc3N2C)n1`, the TGI in [1], in assay [2], in assay [3], in [4], in assay [5] and in assay [6] was > 100 µM in each case. The TGI in assay [7], in assay [8] and in assay [9] was > 100 µM throughout.

Regarding `Cc1nc(-c2cccnc2)sc1C(=O)/C=C/c1cccc([N+](=O)[O-])c1`, the TGI in assay [1], in assay [2], in assay [3], in assay [4], in [5] and in [7] was > 100 µM each time. In addition, the TGI in [8], in assay [9] and in assay [10] was > 100 µM in each case.

`CC1c2ccccc2N=C2SC(=S)N3CCN=C3N21` (stereo not drawn): the GI50 in [1], in [2], in assay [3], in assay [4], in assay [5] and in assay [6] was > 100 µM each time. In addition, the GI50 in assay [7] was 4.33 µM; in assay [8] it was > 100 µM; in assay [9] it was > 100 µM; in assay [10], > 100 µM. Moreover, the TGI in assay [1], in assay [2], in assay [3], in assay [4], in assay [5] and in [6] was > 100 µM in each case. Moreover, the TGI in assay [7], in [8], in [9] and in [10] was > 100 µM throughout.

Turning to `COc1ccc(-c2c(C3=NCCCN3)nnn2-c2ccc([N+](=O)[O-])cc2)cc1`, the TGI in [1], in [2], in [3], in [4], in assay [5] and in [6] was > 100 µM throughout. Moreover, the TGI in assay [7], in [8], in assay [9] and in assay [10] was > 100 µM each time.

Regarding `C=CCNC(=O)N(CCC)CCCC(NC(C)=O)C(=O)NCc1ccccc1` (stereo not drawn), the TGI in assay [1], in [2], in assay [3], in assay [4], in [5] and in [6] was > 100 µM in each case. Besides, the TGI in assay [7], in [8], in assay [9] and in assay [10] was > 100 µM throughout.

For the compound `Clc1ccc2c(c1)N(c1ncnc3ccc(-c4cnc5[nH]ncc5c4)cc13)CC2`, the GI50 in assay [1] is 0.33 µM; in [2], 0.338 µM; in assay [3] it was 0.411 µM; in assay [4], 0.169 µM; in assay [5] it was 0.465 µM; in assay [6] it was 1.46 µM. The GI50 was 0.338 µM in assay [7], 2.23 µM in assay [8] and 1.12 µM in assay [10]. For the same compound, the TGI in assay [1], in assay [2], in assay [3], in [4], in assay [5] and in assay [6] was > 100 µM throughout. In addition, the TGI in [7], in assay [8] and in assay [10] was > 100 µM in each case.

In the case of `O=C(Cl)C1=C(c2ccccc2)C1c1ccccc1` (stereo not drawn), the TGI in assay [1], in assay [2], in [3], in assay [4], in assay [5] and in assay [6] was > 100 µM in each case. For the same compound, the TGI in [7], in assay [8], in [9] and in [10] was > 100 µM in each case.

As for `CCN(CC)c1ccc(/C=C/C2=[N+](C)c3ccccc3C2(C)C)c(C)c1`, the GI50 was 0.0964 µM in assay [1]; 0.0535 µM in assay [2]; 0.0367 µM in assay [3]; 0.0217 µM in assay [4]; 0.0512 µM in assay [5]; 0.0684 µM in assay [6]. Moreover, the GI50 in [7] was 0.0466 µM; in assay [8], 0.0482 µM; in assay [9], 0.0546 µM; in assay [10], 0.155 µM. The TGI is 14.1 µM in [1]; 1.28 µM in [2]; 0.138 µM in [3]; 0.148 µM in [4]; 1.55 µM in assay [5]; 9.36 µM in [6]. Moreover, the TGI was determined as 7.86 µM in assay [7], 0.269 µM in assay [8], 0.21 µM in [9] and 1.09 µM in assay [10].

For `c1ccc2[nH]c(CNc3ccc(C4C[Se]N=N4)cc3)nc2c1` (stereo not drawn), the TGI in assay [1] is > 100 µM; in assay [2] it was > 100 µM; in [3] it was 77.7 µM; in assay [4], > 100 µM; in assay [5], 40.5 µM; in [6], > 100 µM. Moreover, the TGI in assay [8], in assay [9] and in [10] was > 100 µM throughout.

Turning to `COC(=O)c1ccc2c(c1)C(=O)c1c-2n(CCCN=[N+]=[N-])c(=O)c2cc([N+](=O)[O-])ccc12`, the GI50 was 61.6 µM in assay [2]; > 100 µM in assay [3]; 17.5 µM in assay [4]; 30.2 µM in [5]; 47.4 µM in [6]; 83.5 µM in assay [7]. Besides, the GI50 in assay [8] was 34.3 µM; in assay [9], 35.3 µM; in assay [10], 63 µM. Further, the TGI in assay [2] was > 100 µM; in assay [3], > 100 µM; in [4] it was 53.3 µM; in assay [5], > 100 µM; in [6] it was > 100 µM; in assay [7] it was > 100 µM. Besides, the TGI in assay [8], in [9] and in assay [10] was > 100 µM throughout.

For the compound `[2H]c1nc(=Nc2cc(NC(=O)C=C)c(N(C)CCN(C)C)cc2OC)[nH]c(-c2cn(C([2H])([2H])[2H])c3ccccc23)c1[2H]`, the GI50 in assay [1] was 1.14 µM; in assay [2] it was 1.65 µM; in assay [3], 0.848 µM; in assay [4] it was 1.04 µM; in assay [5], 1.14 µM; in assay [6], 1.4 µM. The GI50 in assay [7] is 0.853 µM; in [8], 0.265 µM; in assay [10], 1.94 µM. Moreover, the TGI worked out at 7.64 µM in assay [1]; 3.17 µM in assay [2]; 2.5 µM in assay [3]; 2.45 µM in assay [4]; 2.86 µM in [5]; 3.05 µM in assay [6]. Besides, the TGI came out at 11.5 µM in assay [7], 2.24 µM in assay [8] and 3.66 µM in assay [10].

As to `OCc1ccc(N2CCOCC2)cc1Cl`, the GI50 in [1] was > 100 µM; in assay [2], > 100 µM; in assay [3], > 100 µM; in assay [4], 34.6 µM; in assay [5], > 100 µM; in [6] it was > 100 µM. Moreover, the GI50 in assay [8], in [9] and in assay [10] was > 100 µM in each case. In addition, the TGI in [1], in [2], in assay [3], in assay [4], in [5] and in assay [6] was > 100 µM in each case. The TGI in [8], in [9] and in [10] was > 100 µM in each case.

Regarding `O=C(NCCN1CCNCC1)c1ccc(Nc2nc3ccccc3c3occc23)cc1`, the GI50 is 17.5 µM in [1]; 15.2 µM in assay [2]; 17.6 µM in assay [3]; 1.24 µM in assay [4]; 20.4 µM in [5]; 15.5 µM in [6]. For the same compound, the values for the GI50 in assay [7], in [8] and in [9] were 9.45 µM, 10.3 µM and 19.3 µM, respectively. Moreover, the TGI is 36.8 µM in [1]; 33.1 µM in [2]; 33.5 µM in assay [3]; 15.8 µM in [4]; 36.9 µM in assay [5]; > 100 µM in assay [6]. For the same compound, the TGI was determined as 27.2 µM in assay [7], 28.3 µM in assay [8] and 47.5 µM in assay [9].

With `O=C1CNS(=O)(=O)N1`, the TGI in assay [1], in [3], in assay [4], in assay [5], in assay [6] and in assay [7] was > 100 µM throughout. Besides, the TGI in [8], in assay [9] and in assay [10] was > 100 µM each time.

As to `Cc1c(C(=O)/C=C/c2ccccc2[N+](=O)[O-])[n+](=O)c2ccccc2n1[O-]`, the TGI in assay [1] amounted to 34.3 µM; in assay [3], 5.71 µM; in [4], 27.4 µM; in [5] it was 29.3 µM; in assay [6], 33.4 µM; in assay [7], 27.6 µM. For the same compound, the results for the TGI in assay [8], in assay [9] and in [10] were 19.1 µM, 31.8 µM and 27.8 µM, respectively.

Take `CCOC(=O)c1c(SCCN2CCOCC2)n(-c2ccccc2)c(=S)n(-c2ccccc2)c1=O`: the TGI is > 100 µM in assay [1]; 33.3 µM in assay [2]; 49.2 µM in assay [3]; > 100 µM in assay [4]; 92.5 µM in assay [5]; > 100 µM in assay [6]. Moreover, the TGI in assay [8] and in assay [10] was > 100 µM throughout.

Turning to `Cc1ccc(NC(=O)/C(Cc2nc3ccc([N+](=O)[O-])cc3[nH]c2=O)=N\NC(=O)C[n+]2ccccc2)c(C)c1`, the TGI in [1] was > 100 µM; in [2] it was > 100 µM; in assay [3], 81.8 µM; in assay [4], > 100 µM; in [5] it was 88 µM; in assay [6], > 100 µM. The TGI was > 100 µM in assay [7], 61.6 µM in assay [8] and 56.5 µM in [9].

As for `COc1ccc(-c2cnoc2-c2cc(OC)c3c(c2)OCCO3)cc1`, the GI50 in assay [1] was 0.048 µM; in [2] it was 0.0632 µM; in assay [3] it was 0.0289 µM; in [4] it was 0.281 µM; in assay [5] it was 0.0638 µM; in assay [6], 0.0525 µM. Also, the GI50 in assay [8] is < 0.0141 µM; in [9], 0.0312 µM; in assay [10], 39.8 µM. The TGI in [1] was > 100 µM; in assay [2], 22.5 µM; in [3], 0.975 µM; in assay [4] it was 41.7 µM; in assay [5], > 100 µM; in [6], > 100 µM. Also, the TGI in assay [8] is 0.0842 µM; in assay [9], 2.8 µM; in assay [10], > 100 µM.

Turning to `CCNCCNc1cc(-c2ccc(C#N)cc2)c(C#N)c2nc3ccccc3n12`, the GI50 was 3.06 µM in assay [1]; 1.72 µM in assay [2]; 1.87 µM in assay [3]; 2.21 µM in [4]; 4.69 µM in assay [6]; 4.75 µM in [7]. Also, the GI50 in assay [8] was 2.44 µM; in [9], 3.8 µM; in [10] it was 1.8 µM. For the same compound, the TGI in assay [1] amounted to 6.39 µM; in [2] it was 3.29 µM; in assay [3], 4.35 µM; in assay [4] it was 4.5 µM; in assay [6] it was 17.4 µM; in [7], 19.3 µM. In addition, the TGI in [8] was determined as 7.06 µM; in assay [9] it was 14.8 µM; in assay [10], 3.99 µM.
